Data as given in ChEMBL document CHEMBL1201862, “PubChem BioAssay data set” (2004).
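Values below derive from 48-hour exposures of cells grown in 96-well plates, with endpoints linearly interpolated between the two concentrations bracketing the appropriate inhibition level. GI50 is the concentration that inhibits growth by half.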 The source made the active and inactive calls. Rule as the data show it: active = GI50 up to about 1.1 µM and inactive = higher.

Columns and labels:
Experiment in all cases: NCI anticancer screen, dose series, 48 h
[1] = test system: SN12C
[2] = test system: UACC-257
[3] = test system: A498
[4] = test system: UO-31
[5] = test system: NCI/ADR-RES
[6] = test system: A549
[7] = test system: OVCAR-3
[8] = test system: OVCAR-5
[9] = test system: Hs-578T
[10] = test system: HT-29
[11] = test system: K562
[12] = test system: NCI-H522
[13] = test system: PC-3
[14] = test system: Malme-3M
[15] = test system: MCF7
[16] = test system: UACC-62
[17] = test system: MOLT-4
[18] = test system: COLO 205
[19] = test system: HOP-92
[20] = test system: OVCAR-4

S=CN1CCCCC1
GI50 [1]: > 100 µM (inactive) | GI50 [2]: > 100 µM (inactive) | GI50 [3]: > 100 µM (inactive) | GI50 [4]: > 100 µM (inactive) | GI50 [5]: > 100 µM (inactive) | GI50 [6]: > 100 µM (inactive) | GI50 [7]: > 100 µM (inactive) | GI50 [8]: > 100 µM (inactive) | GI50 [9]: > 100 µM (inactive) | GI50 [10]: > 100 µM (inactive) | GI50 [11]: > 100 µM (inactive) | GI50 [12]: > 100 µM (inactive) | GI50 [13]: > 100 µM (inactive) | GI50 [14]: > 100 µM (inactive) | GI50 [15]: > 100 µM (inactive) | GI50 [16]: > 100 µM (inactive) | GI50 [17]: > 100 µM (inactive) | GI50 [18]: > 100 µM (inactive)

CCOC(=O)c1sc(=S)n(-c2ccc(Cl)cc2)c1-n1cc(-c2ccccc2)c(C#N)c1N
GI50 [1]: 18.6 µM (inactive) | GI50 [2]: 41.4 µM (inactive) | GI50 [3]: 23.1 µM (inactive) | GI50 [5]: 16.9 µM (inactive) | GI50 [6]: 18.8 µM (inactive) | GI50 [19]: 15.4 µM (inactive) | GI50 [7]: 13.7 µM (inactive) | GI50 [8]: > 100 µM (inactive) | GI50 [9]: 4.19 µM (inactive) | GI50 [10]: 51.6 µM (inactive) | GI50 [11]: 44.4 µM (inactive) | GI50 [12]: 3.32 µM (inactive) | GI50 [13]: 11.8 µM (inactive) | GI50 [15]: 15.7 µM (inactive) | GI50 [16]: 24.8 µM (inactive) | GI50 [20]: 8.85 µM (inactive) | GI50 [17]: > 100 µM (inactive) | GI50 [18]: > 100 µM (inactive)

Nc1nc(N)c(N=O)c(OCC2CCCCC2)n1
GI50 [1]: 5.15 µM (inactive) | GI50 [2]: 9.02 µM (inactive) | GI50 [3]: 18.1 µM (inactive) | GI50 [4]: 5.16 µM (inactive) | GI50 [5]: 18.9 µM (inactive) | GI50 [6]: 17.8 µM (inactive) | GI50 [19]: 7.83 µM (inactive) | GI50 [7]: 8.47 µM (inactive) | GI50 [8]: 9.71 µM (inactive) | GI50 [9]: 6.73 µM (inactive) | GI50 [10]: 9.64 µM (inactive) | GI50 [11]: 21.9 µM (inactive) | GI50 [12]: 5.96 µM (inactive) | GI50 [13]: 6.41 µM (inactive) | GI50 [15]: 4.3 µM (inactive) | GI50 [16]: 6.98 µM (inactive) | GI50 [20]: 10 µM (inactive) | GI50 [17]: 6.64 µM (inactive) | GI50 [18]: 12.3 µM (inactive)

CC1(c2sccc2Cl)CC(c2sccc2Cl)=C(C#N)C(=C(C#N)C#N)N1 (stereo not given)
GI50 [1]: 20.2 µM (inactive) | GI50 [2]: 22.4 µM (inactive) | GI50 [3]: 18 µM (inactive) | GI50 [5]: 22.8 µM (inactive) | GI50 [6]: 24.7 µM (inactive) | GI50 [7]: 14.9 µM (inactive) | GI50 [8]: 22.3 µM (inactive) | GI50 [9]: 21.5 µM (inactive) | GI50 [10]: 24 µM (inactive) | GI50 [12]: 19.1 µM (inactive) | GI50 [13]: 18.7 µM (inactive) | GI50 [14]: 17.6 µM (inactive) | GI50 [15]: 22.8 µM (inactive) | GI50 [16]: 18.3 µM (inactive) | GI50 [20]: 25.1 µM (inactive) | GI50 [17]: 38.7 µM (inactive) | GI50 [18]: 23.1 µM (inactive)

CN(Cc1cnc2nc(N)nc(N)c2n1)c1ccc(C(=O)NC(CCC(=O)O)C(=O)O)c2ccccc12 (stereo not given)
GI50 [1]: 0.00697 µM (active) | GI50 [2]: 0.0425 µM (active) | GI50 [3]: 0.0526 µM (active) | GI50 [4]: 0.00638 µM (active) | GI50 [5]: 0.00395 µM (active) | GI50 [6]: 0.00286 µM (active) | GI50 [7]: 0.0429 µM (active) | GI50 [8]: 0.0185 µM (active) | GI50 [9]: 0.0982 µM (active) | GI50 [10]: 0.00168 µM (active) | GI50 [11]: 0.000301 µM (active) | GI50 [13]: 0.000479 µM (active) | GI50 [14]: 0.0356 µM (active) | GI50 [15]: 0.00163 µM (active) | GI50 [16]: 0.00148 µM (active) | GI50 [20]: < 0.1 µM (active) | GI50 [17]: 0.00545 µM (active) | GI50 [18]: 0.0391 µM (active)

O=[N+]([O-])c1cccc(-c2ncc3c(n2)-c2ccccc2C3)c1
GI50 [1]: > 100 µM (inactive) | GI50 [2]: > 100 µM (inactive) | GI50 [4]: > 100 µM (inactive) | GI50 [5]: > 100 µM (inactive) | GI50 [6]: > 100 µM (inactive) | GI50 [19]: > 100 µM (inactive) | GI50 [8]: > 100 µM (inactive) | GI50 [9]: 32.9 µM (inactive) | GI50 [10]: > 100 µM (inactive) | GI50 [11]: > 100 µM (inactive) | GI50 [12]: 24.7 µM (inactive) | GI50 [13]: > 100 µM (inactive) | GI50 [14]: > 100 µM (inactive) | GI50 [15]: > 100 µM (inactive) | GI50 [16]: > 100 µM (inactive) | GI50 [20]: > 100 µM (inactive) | GI50 [17]: > 100 µM (inactive) | GI50 [18]: > 100 µM (inactive)

O=C(O)c1ccc(Nc2cnc3ccc(C(F)(F)F)cc3n2)cc1
GI50 [1]: 25.5 µM (inactive) | GI50 [2]: 32.7 µM (inactive) | GI50 [3]: 23.8 µM (inactive) | GI50 [4]: 13.7 µM (inactive) | GI50 [5]: 32.7 µM (inactive) | GI50 [6]: 13.4 µM (inactive) | GI50 [19]: 15.5 µM (inactive) | GI50 [7]: 28.2 µM (inactive) | GI50 [8]: 32.6 µM (inactive) | GI50 [9]: 7.08 µM (inactive) | GI50 [10]: 17.1 µM (inactive) | GI50 [11]: 20.9 µM (inactive) | GI50 [13]: 17.7 µM (inactive) | GI50 [14]: 32.4 µM (inactive) | GI50 [15]: 33 µM (inactive) | GI50 [16]: 14 µM (inactive) | GI50 [20]: 18.9 µM (inactive) | GI50 [17]: 19.9 µM (inactive) | GI50 [18]: 17.2 µM (inactive)

COc1ccc2[nH]c(CCNC(=O)c3cc([N+](=O)[O-])cc([N+](=O)[O-])c3)cc2c1
GI50 [1]: 56 µM (inactive) | GI50 [2]: > 100 µM (inactive) | GI50 [3]: > 100 µM (inactive) | GI50 [4]: > 100 µM (inactive) | GI50 [5]: > 100 µM (inactive) | GI50 [6]: > 100 µM (inactive) | GI50 [19]: 21.2 µM (inactive) | GI50 [7]: > 100 µM (inactive) | GI50 [9]: 58.9 µM (inactive) | GI50 [10]: > 100 µM (inactive) | GI50 [11]: > 100 µM (inactive) | GI50 [13]: > 100 µM (inactive) | GI50 [14]: > 100 µM (inactive) | GI50 [15]: 69.3 µM (inactive) | GI50 [16]: 36.1 µM (inactive) | GI50 [20]: > 100 µM (inactive) | GI50 [17]: > 100 µM (inactive) | GI50 [18]: > 100 µM (inactive)
